Test results published in PMC5693942 (Scientific Reports, 2017).
Values after ≈ are worked out from the molar mass of the structure shown. Read-outs that look alike come from different tables or passages of the source.

Assays:
Daphnia magna = Daphnia magna acute 48 h immobilization assay (Daphtoxkit); format: in vivo; settings: for Average effect (N immobile, 5 daphnids per replicate): 48 h;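 as to Average effect (N immobile, 5 daphnids per replicate): test concentrations in mg per L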
Procedure: Six concentration levels (5 concentrations plus control, four replicate beakers for each concentrations, five individual for each beaker) were tested. […] Each experiment was repeated in triplicate.

Tetrahymena thermophila = experiment: microbe, parasite or virus in culture; format: cell-based; settings: for EC50: Tetrahymena thermophila
Procedure: The tests were performed in accordance with the protocols provided by the manufacturer. […] The tests were carried out in disposable spectrophotometric cells of 1 cm path-length, to enable the measurement of the optical density (OD) at 440 nm. […] This change in OD over the time period is used to quantify the degree of inhibition and subsequent calculation of the EC50. Each concentration was repeated in duplicate.

[1] = Activated sludge simulating microcosms (degradation of FL, formation of NFL); format: physicochemical
Procedure: Activated sludge microcosm experiments were conducted in the dark and aerobic conditions. Three microcosm bioreactors were investigated in duplicate. They were filled with 2 L of fresh activated sludge collected from a local wastewater treatment plant. […] Dark conditions were simulated by covering up the flask with foil. Aerobic conditions were obtained using air from BOC air cylinder and a thorough mixing was maintained using magnetic stirrers. The experiment was 24 hours long. […] Collected samples were subsequently frozen until their analysis to prevent degradation of compounds.
The compounds studied are characterized as having low volatility and therefore volatilization was not considered as a potential removal pathway in studied microcosms. Photodegradation was also not considered (not relevant) under tested activated sludge conditions. Therefore the two important degradation mechanisms to consider were biodegradation and sorption to sludge. […] However, in this study, sorption equilibrium was assumed and therefore sorption could be considered negligible. This is because sorption is assumed to be fast when compared to biological degradation.
Several reports utilized pseudo-first-order kinetics for degradation of micropollutants in activated sludge reactors[48]–[50]. […] Pseudo-first order biodegradation rate k1 [L g^−1h^−1]

[2] = River water simulating microcosms (degradation of FL)

- Concentration ([1]; 10 µg L-1 microcosm, time 0): 0.035 ± 0.009 ng/mL
- Concentration ([1]; 10 µg L-1 microcosm, time 0.5): 0.029 ± 0.001 ng/mL
- Concentration ([1]; 10 µg L-1 microcosm, time 1): 0.077 ± 0.004 ng/mL
- Concentration ([1]; 10 µg L-1 microcosm, time 1.5): 0.012 ± 0.013 ng/mL
- Concentration ([1]; 10 µg L-1 microcosm, time 2): 0.050 ± 0.011 ng/mL
- Concentration ([1]; 10 µg L-1 microcosm, time 3): 0.043 ± 0.022 ng/mL
- Concentration ([1]; 10 µg L-1 microcosm, time 5): 0.070 ± 0.016 ng/mL
- Concentration ([1]; 10 µg L-1 microcosm, time 8): 0.055 ± 0.019 ng/mL
- Concentration ([1]; 10 µg L-1 microcosm, time 12): 0.126 ± 0.035 ng/mL
- Concentration ([1]; 10 µg L-1 microcosm, time 24): 0.182 ± 0.000 ng/mL
- Concentration ([1]; 100 µg L-1 microcosm, time 0): 0.109 ± 0.023 ng/mL
- Concentration ([1]; 100 µg L-1 microcosm, time 0.5): 0.132 ± 0.015 ng/mL
- Concentration ([1]; 100 µg L-1 microcosm, time 1): 0.128 ± 0.038 ng/mL
- Concentration ([1]; 100 µg L-1 microcosm, time 1.5): 0.146 ± 0.039 ng/mL
- Concentration ([1]; 100 µg L-1 microcosm, time 2): 0.428 ± 0.019 ng/mL
- Concentration ([1]; 100 µg L-1 microcosm, time 3): 0.429 ± 0.164 ng/mL
- Concentration ([1]; 100 µg L-1 microcosm, time 5): 0.616 ± 0.227 ng/mL
- Concentration ([1]; 100 µg L-1 microcosm, time 8): 0.710 ± 0.193 ng/mL
- Concentration ([1]; 100 µg L-1 microcosm, time 12): 0.859 ± 0.069 ng/mL
- Concentration ([1]; 100 µg L-1 microcosm, time 24): 1.302 ± 0.066 ng/mL
- Concentration ([2]; DAR (dark abiotic), day 5): 0.002 ± 0.000 ng/mL
- Concentration ([2]; DBR (dark biotic), day 1): 0.002 ± 0.001 ng/mL
- Concentration ([2]; DBR (dark biotic), day 3): 0.002 ± 0.001 ng/mL
- Concentration ([2]; DBR (dark biotic), day 5): 0.002 ± 0.001 ng/mL
- Concentration ([2]; LAR (light abiotic), day 2): 0.001 ± 0.000 ng/mL
- Concentration ([2]; LAR (light abiotic), day 3): 0.004 ± 0.001 ng/mL
- Concentration ([2]; LAR (light abiotic), day 4): 0.003 ± 0.000 ng/mL
- Concentration ([2]; LAR (light abiotic), day 5): 0.002 ± 0.001 ng/mL
- Concentration ([2]; LAR (light abiotic), day 8): 0.001 ± 0.001 ng/mL
- Concentration ([2]; LAR (light abiotic), day 9): 0.002 ± 0.001 ng/mL
- Concentration ([2]; LAR (light abiotic), day 10): 0.002 ± 0.000 ng/mL
- Concentration ([2]; LAR (light abiotic), day 11): 0.003 ± 0.000 ng/mL
- Concentration ([2]; LAR (light abiotic), day 12): 0.003 ± 0.001 ng/mL
- Concentration ([2]; LAR (light abiotic), day 15): 0.002 ± 0.001 ng/mL
- Concentration ([2]; LAR (light abiotic), day 16): 0.004 ± 0.001 ng/mL
- Concentration ([2]; LBR (light biotic), day 1): 0.001 ± 0.000 ng/mL
- Concentration ([2]; LBR (light biotic), day 2): 0.002 ± 0.000 ng/mL
- Concentration ([2]; LBR (light biotic), day 3): 0.002 ± 0.001 ng/mL
- Concentration ([2]; LBR (light biotic), day 5): 0.003 ± 0.001 ng/mL
SMILES: NCC[C@@H](Oc1ccc(C(F)(F)F)cc1)c1ccccc1 [(R)-NFL, (R)-3-phenyl-3-[4-(trifluoromethyl)phenoxy]-1-propanamine]
- Average effect (N immobile, 5 daphnids per replicate) (Daphnia magna; concentration 0.5): 0.25
- Average effect (N immobile, 5 daphnids per replicate) (Daphnia magna; concentration 1.5): 0.5
- Average effect (N immobile, 5 daphnids per replicate) (Daphnia magna; concentration 5): 4.25
- Average effect (N immobile, 5 daphnids per replicate) (Daphnia magna; concentration 16): 5
- Average effect (N immobile, 5 daphnids per replicate) (Daphnia magna; concentration 50): 5
- EC50 (Daphnia magna; Daphnia magna, D. magna, this study, read-out: EC50_48h -immobilization): 2.9 µg/mL (≈ 9.82 µM)
- EC50 (Tetrahymena thermophila; T. thermophila, this study, read-out: EC50_24h -growth): 5.8 µg/mL (≈ 19.6 µM)
- EC50 (Tetrahymena thermophila; definitive test, read-out: 24hEC50): 5.84 µg/mL (≈ 19.8 µM)
- EC50 (Tetrahymena thermophila; range test, read-out: 24hEC50): 0.418 µg/mL (≈ 1.42 µM)
- % I (percentage inhibition) (Tetrahymena thermophila; definitive test, conc. 0.220): -4.385%
- % I (percentage inhibition) (Tetrahymena thermophila; definitive test, conc. 0.661): -11.658%
- % I (percentage inhibition) (Tetrahymena thermophila; definitive test, conc. 22.017): 92.941%
- % I (percentage inhibition) (Tetrahymena thermophila; definitive test, conc. 35.941): 94.118%
- % I (percentage inhibition) (Tetrahymena thermophila; definitive test, conc. 57.505): 94.332%
- % I (percentage inhibition) (Tetrahymena thermophila; definitive test, conc. 118.604): 103.743%
- % I (percentage inhibition) (Tetrahymena thermophila; definitive test, conc. 179.703): 104.492%
- % I (percentage inhibition) (Tetrahymena thermophila; range test, conc. 0.005): 10.591%
- % I (percentage inhibition) (Tetrahymena thermophila; range test, conc. 0.050): -7.266%
- % I (percentage inhibition) (Tetrahymena thermophila; range test, conc. 0.500): 50.369%
- % I (percentage inhibition) (Tetrahymena thermophila; range test, conc. 5.000): 101.108%
- % I (percentage inhibition) (Tetrahymena thermophila; range test, conc. 50.000): 106.897%
